Numbers after ± are expanded uncertainties.
Settings: Liquid, Closed cell (Static) method

CCOC(=O)CCC(=O)O [4-ethoxy-4-oxobutanoic acid]
Settings | vapor or sublimation pressure [kPa]
417.7 K | 1.587 ± 0.031
421.2 K | 2.089 ± 0.03
425.1 K | 2.591 ± 0.03
428.5 K | 3.094 ± 0.029
433 K | 3.596 ± 0.032
435.6 K | 4.098 ± 0.054
436.7 K | 4.601 ± 0.048
439.8 K | 5.103 ± 0.2
440.3 K | 5.605 ± 0.2
443 K | 6.107 ± 0.053
444.3 K | 6.61 ± 0.073
445.9 K | 7.112 ± 0.065
447.6 K | 7.614 ± 0.067
449.1 K | 8.117 ± 0.074
450.5 K | 8.619 ± 0.072
452.1 K | 9.121 ± 0.079
453.2 K | 9.624 ± 0.082
454.7 K | 10.13 ± 0.085
455.7 K | 10.63 ± 0.12
456.5 K | 11.13 ± 0.14
457.2 K | 11.63 ± 0.12
458.2 K | 12.14 ± 0.12
458.4 K | 12.64 ± 0.12
459.8 K | 13.14 ± 0.34
460.1 K | 13.64 ± 0.23
460.3 K | 14.14 ± 0.23
461.1 K | 14.65 ± 0.13
462 K | 15.15 ± 0.1
463.3 K | 15.65 ± 0.11
463.8 K | 16.15 ± 0.23
464.2 K | 16.66 ± 0.29
464.5 K | 17.16 ± 0.2
465.2 K | 17.66 ± 0.16
465.8 K | 18.16 ± 0.14
466.7 K | 18.67 ± 0.14
467.3 K | 19.17 ± 0.19
467.8 K | 19.67 ± 0.21
468.3 K | 20.17 ± 0.21
468.8 K | 20.67 ± 0.18
469.5 K | 21.18 ± 0.28
469.7 K | 21.68 ± 0.3
469.8 K | 22.18 ± 0.51
470.1 K | 22.68 ± 0.51
470.3 K | 23.19 ± 0.39
470.4 K | 23.69 ± 0.39
470.5 K | 24.19 ± 0.39
471.1 K | 24.69 ± 0.23
471.4 K | 25.2 ± 0.26
471.9 K | 25.7 ± 0.21

Source: the NIST ThermoML archive (doi:10.1016/j.fluid.2011.06.020)
